Laboratory results: paper PMC6888270 (International Journal of Molecular Sciences, 2019)
Square brackets hold non-standard residues; d marks the D form. Peptide text beside a SMILES is read from it. d(hArg(Et2)) = CCN=C(NCC)NCCCC[C@@H](N)C(=O)O; hArg(Et2) = CCN=C(NCC)NCCCC[C@H](N)C(=O)O; dPhe(4-Cl) = N[C@H](Cc1ccc(Cl)cc1)C(=O)O; d2Nal = N[C@H](Cc1ccc2ccccc2c1)C(=O)O; dCit = NC(=O)NCCC[C@@H](N)C(=O)O; d3Pal = N[C@H](Cc1cccnc1)C(=O)O

How the values were obtained:
GnRH receptor (GnRHR) [1] = molecular target: T1, GnRH receptor (GnRHR) (Homo sapiens, UniProt P30968); assay: BRET measurement of GnRH-induced intracellular Ca2+ increase in SH-SY5Y/GnRHR cells; format: cell-based; parameters: HA (hemagglutinin); expressed in transfected cells; settings: means±SEM, n=6
T1 sequence (P30968 1-328): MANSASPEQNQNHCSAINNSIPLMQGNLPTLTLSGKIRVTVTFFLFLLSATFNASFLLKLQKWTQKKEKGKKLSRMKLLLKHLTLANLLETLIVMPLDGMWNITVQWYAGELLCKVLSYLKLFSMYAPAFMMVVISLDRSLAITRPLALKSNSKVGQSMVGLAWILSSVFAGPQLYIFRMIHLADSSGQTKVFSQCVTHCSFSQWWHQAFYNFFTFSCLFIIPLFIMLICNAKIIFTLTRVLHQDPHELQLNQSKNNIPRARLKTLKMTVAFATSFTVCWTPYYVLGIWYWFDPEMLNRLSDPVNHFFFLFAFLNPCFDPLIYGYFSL
Experimental: (§1) Different transfection protocols were followed, depending on the endpoint to be measured. For BRET experiments, 3 × 10^4 cells were transiently transfected using vectors expressing the cAMP-CAMYEL or the aequorin-Ca^2+ BRET biosensor-encoding cDNA [59], as appropriate, together with the GnRHR-HA-encoding vector. Transfections were performed in a 96-well plate using the Metafectene PRO reagent (Biontex, München, Germany), as previously described. 100 ng of the receptor-encoding vector + 100 ng of the BRET biosensor-encoding vector were used for co-transfecting HEK293 cells, while SH-SY5Y cells were co-transfected using 200 ng of the receptor-encoding vector + 100 ng of the BRET biosensor-encoding vector. 200 ng of the aequorin-Ca^2+ BRET biosensor-encoding cDNA were used for transfecting LβT2 cells. Each sample was prepared in duplicate, cultured for 48 h and serum-starved over-night before experiments.
(§2) To evaluate Ca^2+ increase, cells were incubated in Hank’s Balanced Salt Solution (HBSS) with Ca^2+ and Mg^2+, 1 mM Hepes and 5 µM Coelenterazine H (NanoLight Technologies, a division of Prolume, Ltd., Pinetop, AZ, USA), for 45 minutes, together with Cetrorelix, Ganirelix, Teverelix or vehicle, as appropriate. […] The EC50 was extrapolated from the curve obtained from each cell line. Cells treated by 5 µM of the sarco/endoplasmic reticulum Ca^2+ ATPase enzyme inhibitor, thapsigargin (Tocris Bioscience), served as positive control. Treatment by the vehicle (HBSS) was the negative control and used as a normalizer.
(§3) BRET experiments were performed using a CLARIOstar plate reader equipped by a monocromator (BMG Labtech, Ortenberg, Germany), as previously described.
(§4) Data were plotted on graphs as means ± standard error of means (SEM). The kinetics of intracellular Ca^2+ increase was represented by the BRET biosensor emission after background subtraction (vehicle). […] Data distributions were analyzed by D’Agostino and Pearson normality tests and inhibition of intracellular Ca^2+ increase by different concentrations of antagonist were compared using two-way analysis of variance (ANOVA), followed by Bonferroni post-test or Kruskal-Wallis and proper post-test. cAMP accumulation was represented as acceptor:donor emission ratio (induced BRET changes) after basal subtraction (untreated cells). Dose-response curves were obtained by data interpolation using non-linear regressions and normalized as percentage of the maximal response. EC50s, as well as half-maximal inhibitory concentrations (IC50), were compared by t-test or Mann–Whitney U test, while results obtained by Western blotting and qRT-PCR data were compared by one-way ANOVA followed by Bonferroni post-test. Statistical differences were considered as significant for p < 0.05. These analyses were performed using the GraphPad Prism software (GraphPad Software Inc., San Diego, CA, USA).

GnRH receptor (GnRHR) [2] = molecular target: T1, GnRH receptor (GnRHR); assay: BRET measurement of GnRH-induced intracellular Ca2+ increase in HEK293/GnRHR cells; format: cell-based; parameters: HA (hemagglutinin); expressed in transfected cells; host or cells: HEK293 (transient co-transfection with BRET biosensor); settings: means ± SEM, n = 6
Experimental: as §1, §2, §3, §4

[3] = 3xEC50 GnRH + 100 pM antagonist
[4] = 3xEC50 GnRH + 100 nM antagonist
[5] = 3 × EC50 GnRH + 1 pM antagonist
[6] = 3 × EC50 GnRH + 10 pM antagonist
[7] = 3 × EC50 GnRH + 100 pM antagonist
[8] = 3 × EC50 GnRH + 1 nM antagonist
[9] = 3 × EC50 GnRH + 75 nM antagonist
[10] = 3 × EC50 GnRH + 100 nM antagonist
[11] = 3 × EC50 GnRH + 1 µM antagonist

SMILES	AUC of the kinetics of intracellular Ca2+ response (GnRH receptor (GnRHR) [1]; 3xEC50 GnRH + 1 pM antagonist)	AUC of the kinetics of intracellular Ca2+ response (GnRH receptor (GnRHR) [1]; 3xEC50 GnRH + 10 pM antagonist)	AUC of the kinetics of intracellular Ca2+ response (GnRH receptor (GnRHR) [1]; [3])	AUC of the kinetics of intracellular Ca2+ response (GnRH receptor (GnRHR) [1]; 3xEC50 GnRH + 1 nM antagonist)	AUC of the kinetics of intracellular Ca2+ response (GnRH receptor (GnRHR) [1]; 3xEC50 GnRH + 10 nM antagonist)	AUC of the kinetics of intracellular Ca2+ response (GnRH receptor (GnRHR) [1]; 3xEC50 GnRH + 20 nM antagonist)	AUC of the kinetics of intracellular Ca2+ response (GnRH receptor (GnRHR) [1]; [4])	AUC of the kinetics of intracellular Ca2+ response (GnRH receptor (GnRHR) [1]; 3xEC50 GnRH + 1 uM antagonist)	AUC of the kinetics of intracellular Ca2+ response (GnRH receptor (GnRHR) [2]; [5])	AUC of the kinetics of intracellular Ca2+ response (GnRH receptor (GnRHR) [2]; [6])	AUC of the kinetics of intracellular Ca2+ response (GnRH receptor (GnRHR) [2]; [7])	AUC of the kinetics of intracellular Ca2+ response (GnRH receptor (GnRHR) [2]; [8])	AUC of the kinetics of intracellular Ca2+ response (GnRH receptor (GnRHR) [2]; [9])	AUC of the kinetics of intracellular Ca2+ response (GnRH receptor (GnRHR) [2]; [10])	AUC of the kinetics of intracellular Ca2+ response (GnRH receptor (GnRHR) [2]; [11])	AUC of the kinetics of intracellular Ca2+ response (GnRH receptor (GnRHR) [2]; 3 × EC50 GnRH + 10 nM antagonist)
CC(=O)N[C@H](Cc1ccc2ccccc2c1)C(=O)N[C@H](Cc1ccc(Cl)cc1)C(=O)N[C@H](Cc1cccnc1)C(=O)N[C@@H](CO)C(=O)N[C@@H](Cc1ccc(O)cc1)C(=O)N[C@H](CCCNC(N)=O)C(=O)N[C@@H](CC(C)C)C(=O)N[C@@H](CCCNC(=N)N)C(=O)N1CCC[C@H]1C(=O)N[C@H](C)C(N)=O [Cetrorelix] (Ac-[d2Nal][dPhe(4-Cl)][d3Pal]SY[dCit]LRP[dA]-NH2)	105586±22643	103653±11947	118914±31558	81413±26479	81282±26769	58382±8030	46414±15714	13355±4381	78,113 ± 29,979	124,981 ± 33,684	126,243 ± 34,982	71,127 ± 25,268	18,632 ± 4423	8946 ± 3296	3264 ± 3024	
CCN=C(NCC)NCCCC[C@H](NC(=O)[C@H](CC(C)C)NC(=O)[C@@H](CCCCNC(=NCC)NCC)NC(=O)[C@H](Cc1ccc(O)cc1)NC(=O)[C@H](CO)NC(=O)[C@@H](Cc1cccnc1)NC(=O)[C@@H](Cc1ccc(Cl)cc1)NC(=O)[C@@H](Cc1ccc2ccccc2c1)NC(C)=O)C(=O)N1CCC[C@H]1C(=O)N[C@H](C)C(N)=O [Ganirelix] (Ac-[d2Nal][dPhe(4-Cl)][d3Pal]SY[d(hArg(Et2))]L[hArg(Et2)]P[dA]-NH2; N-terminus and C-terminus assumed)	93877±14161	113983±12281	116076±24125	75460±15613	83904±19566	52343±8665	82720±17902	6523±3056	76,189 ± 18,564	91,896 ± 21,766	101,943 ± 27,388	66,665 ± 16,035	43,870 ± 4193	34,734 ± 13,731	3346 ± 2977	73,164 ± 16,237
